Experimental data from patent publication US20070066616A1, “Inhibitors for extracellular signal-regulated kinase docking domains and uses therefor” (priority 2005, published 2007).
Entries after “also recorded” stand apart in the source; their conditions may differ.

Legend:
[1] = tested on: HeLa cells; test: Colony formation assay, HeLa cells; assay type: cell-based, human; settings: for IC50: HeLa cells, single dose 0-100 μM, 8-10 days, at least 3 experiments
Method: HeLa, A549, or SUM-159 cells were plated at a low density of ˜200-400 cells per well in the absence or presence of putative ERK docking domain inhibitors. Cell colonies were stained with crystal violet and counted after 6-10 days.
(§1) Trypsinized cells were plated on 12 or 24 well plates at low densities (200-400 cells per well) in the absence (DMSO only) or presence of test compounds. In additional experiments, cells were first allowed to adhere to the culture dishes for 16 hours prior to treatment with test compounds. The treated cells received a single dose of the test compounds at the beginning of the experiments. The control and treated cells were grown for 8-14 days to allow the formation of colonies. Cells then were fixed for 10 minutes in 4% paraformaldehyde and stained with 0.2% crystal violet (in 20% methanol) for 1-2 minutes. Following several washes with distilled water, the colonies (containing at least 40 cells) were counted. Each individual experiment was repeated on at least 3 separate occasions.
HeLa cells were plated at low density and incubated with a single dose (0-100 μM) of the test compounds being tested. After 8-10 days, the resulting cell colonies were stained, photographed, and counted to estimate the IC50. The data is derived from at least 3 independent experiments.

[2] = tested on: HeLa, A549, or SUM-159 cells; test: Colony formation assay, screen of test compounds (FIG. 7A); assay type: cell-based, human; design: dose or concentration left out as unconfirmed; settings: FIG. 7A screen as printed
Method: HeLa, A549, or SUM-159 cells were plated at a low density of ˜200-400 cells per well in the absence or presence of putative ERK docking domain inhibitors. Cell colonies were stained with crystal violet and counted after 6-10 days. In FIG. 7A cells were grown on 10 cm plates in the absence (−) or presence of 100 mM of compound 67, 36, 68, 81, or 76. Colony formation dose response in the presence of the indicated concentrations of compound 76 or 81 for Hela cells […] (FIG. 7B), A549 cells (50 mM) (FIG. 7C), or SUM-159 cells (50 mM) (FIG. 7D).
as §1
The effects of the active compounds on cell proliferation and survival were tested using a colony formation assay.

[3] = tested on: ERK-mediated phosphorylation of Rsk-1 on Thr573; test: ERK-mediated Rsk-1 phosphorylation (Thr573), immunoblot and densitometry in EGF-stimulated HeLa cells; assay type: cell-based, human; settings: immunoblot
Method: Prior to harvesting, cells were pre-incubated with the test compounds for 15-20 minutes and then stimulated with EGF or anisomycin to activate the ERK or p38 MAP kinase pathways, respectively. Control and treated cells were washed twice with cold phosphate buffered saline (PBS, pH 7.2; Invitrogen) and proteins were collected following cell lysis with 300 μl of cold tissue lysis buffer (20 mM Tris, pH 7.4, 137 mM NaCl, 2 mM EDTA, 1% Triton X-100, 0.1% SDS, 25 mM β-glycerophosphate, 2 mM sodium pyrophosphate, 10% glycerol, 1 mM sodium orthovanadate, 1 mM phenylmethylsulfonyl fluoride (PMSF), 1 mM benzamidine), allowed to incubate on ice for about 10 minutes and then centrifuged at 20,000 (X g) to clarify the lysates of insoluble material. The lysates then were diluted with an equal volume of 2X SDS-sample buffer and the proteins were separated on SDS-PAGE for immunoblot analysis. Immunoblot analysis was done as previously described (41-43).
All compounds were subjected to assays of ERK specific phosphorylation of Rsk-1 and/or Elk-1 as examined by immunoblot analysis using phosphorylation specific antibodies. In FIG. 5A HeLa cells were cultured in 24 well plates and pretreated for 20-30 minutes with […] of the selected test compounds. The cells were stimulated with epidermal growth factor (EGF, 50 ng/ml) for 5 minutes to activate the ERK pathway. Cell lysates were collected and immunoblotted for ERK-mediated phosphorylation of Rsk-1 on Thr573. As shown, EGF treatment alone caused a robust increase in Thr573 phosphorylation on Rsk-1 in the absence of test compounds. The presence of test compounds had inhibitory effects on ERK-mediated Rsk-1 phosphorylation.
Compounds 86-98 were first tested for inhibition of ERK mediated phosphorylation of the transcription factor Elk-1, which is an important regulator of cell proliferation. Cells were treated with EGF to activate the ERK pathway and phosphorylation of Elk-1 on the ERK site at S383 was detected by immunoblot analysis (FIG. 5C). […] The effects of the test compounds were also tested with Rsk-1, another ERK substrate involved in regulating cell proliferation.

[4] = tested on: ERK-mediated phosphorylation of Elk-1 on S383; test: ERK-mediated Elk-1 phosphorylation (Ser383), immunoblot in EGF-stimulated HeLa cells; assay type: cell-based, human
Method: (§2) Prior to harvesting, cells were pre-incubated with the test compounds for 15-20 minutes and then stimulated with EGF or anisomycin to activate the ERK or p38 MAP kinase pathways, respectively. […] The lysates then were diluted with an equal volume of 2X SDS-sample buffer and the proteins were separated on SDS-PAGE for immunoblot analysis. Immunoblot analysis was done as previously described (41-43).
Cells were treated with EGF to activate the ERK pathway and phosphorylation of Elk-1 on the ERK site at S383 was detected by immunoblot analysis (FIG. 5C). […] The effects of the test compounds were also tested with Rsk-1, another ERK substrate involved in regulating cell proliferation.

[5] = target: T1, ERK2 (Mus musculus, UniProt P63085); test: Fluorescence titration (quenching of intrinsic ERK2 fluorescence); assay type: binding; settings: fluorescence titration
T1 construct: (His)x6; made in house; host or cells: bacteria
T1 sequence (P63085 whole entry): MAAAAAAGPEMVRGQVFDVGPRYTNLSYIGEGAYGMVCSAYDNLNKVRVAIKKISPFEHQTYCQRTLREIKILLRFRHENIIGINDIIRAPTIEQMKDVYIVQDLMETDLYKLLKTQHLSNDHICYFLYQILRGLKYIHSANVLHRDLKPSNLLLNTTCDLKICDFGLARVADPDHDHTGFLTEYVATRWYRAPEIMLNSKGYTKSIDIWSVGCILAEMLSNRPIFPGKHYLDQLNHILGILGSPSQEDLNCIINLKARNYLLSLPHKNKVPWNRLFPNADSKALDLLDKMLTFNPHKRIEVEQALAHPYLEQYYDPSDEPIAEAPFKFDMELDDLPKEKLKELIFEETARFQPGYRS
Method: Experiments measure the changes in the intrinsic ERK2 fluorescence due to the presence of aromatic amino acids, with the indole group of tryptophan being the major fluorophore with absorption and emission maxima around 280 and 340 nanometers (nm), respectively. Fluorescence spectra were recorded with a Luminescence Spectrometer LS50 (Perkin Elmer, Boston, Mass.). For all experiments, ERK2 protein was diluted into 20 mM Tris-HCl, pH 7.5. Titrations were performed by increasing the test compound concentration while maintaining the ERK2 protein concentration at 3 μM.
The excitation wavelength was 295 nm and fluorescence was monitored from 300 to 500 nm. All reported fluorescence intensities are relative values and are not corrected for wavelength variations in detector response. Dissociation constants, KD, were determined using reciprocal plots, 1/ν vs 1/[I], where ν represents the percent occupied sites calculated assuming fluorescence quenching to be directly proportion to the percentage of occupied binding sites, [I] represents the concentration of the inhibitor compound and the slope of the curve equals the KD (48-49).
ERK2 contains three tryptophans, which have intrinsic fluorescence. Fluorescence quenching of ERK2 by the test compounds is indicative of binding interactions and potential protein conformational changes.

[6] = tested on: ERK specific phosphorylation of Rsk-1 and/or Elk-1; test: ERK substrate phosphorylation assays (Rsk-1 and/or Elk-1); assay type: cell-based, human
Method: as §2

[7] = tested on: HT1080 fibrosarcoma cells; test: Cell proliferation, HT1080 cells; assay type: cell-based, human; settings: data not shown
Method: as §1

[8] = tested on: A549 lung carcinoma cells; test: Colony formation assay, A549 cells; assay type: cell-based, human; settings: colony formation dose response (FIG. 7C)
Method: (§3) HeLa, A549, or SUM-159 cells were plated at a low density of ˜200-400 cells per well in the absence or presence of putative ERK docking domain inhibitors. Cell colonies were stained with crystal violet and counted after 6-10 days. In FIG. 7A cells were grown on 10 cm plates in the absence (−) or presence of 100 mM of compound 67, 36, 68, 81, or 76. Colony formation dose response in the presence of the indicated concentrations of compound 76 or 81 for Hela cells (100 mM) (FIG. 7B), A549 cells (50 mM) (FIG. 7C), or SUM-159 cells (50 mM) (FIG. 7D).
as §1

[9] = tested on: SUM-159 estrogen-receptor negative breast cancer cell line; test: Cell proliferation, SUM-159 cells; assay type: cell-based, human
Method: as §3, §1

| IC50 [1] [µM] | Structure (SMILES) | effect on ERK-mediated Rsk-1 phosphorylation (in words) [3] | further results |
| --- | --- | --- | --- |
| > 100 | O=C(CN1CCSCC1)NN=Cc1ccc(Br)s1 [Compound 97] | – | – |
| 10 to 25 | COc1cc(C=C2NC(=O)NC2=O)ccc1OCc1ccc(Br)cc1 [Compound 95] | most effective | effect on ERK-mediated Elk-1 phosphorylation (in words) [4]: most effective |
| 5 to 10 | Cc1ccc(-c2nc(-c3cccc([N+](=O)[O-])c3)no2)c(Cl)c1 [Compound 93] | – | inhibition of colony formation / cancer cell proliferation (in words) ([1]; compounds 86-98, colony formation assay (FIG. 7E)): most effective inhibitors; ERK2 fluorescence quenching / binding (in words) [5]: some quenching; effect on ERK-mediated Elk-1 phosphorylation (in words) [4]: most effective |
| > 100 | COc1ccc(C(=O)Nc2ccc(OCC(=O)O)cc2)cc1 [Compound 96] | – | – |
| > 100 | C#CCOC(=O)CCCC(=O)Nc1ccc([N+](=O)[O-])cc1Cl [Compound 87] | – | – |
| > 100 | CCOC(=O)c1ccc(NC(=S)NCCN2CCOCC2)cc1 [Compound 90] | – | – |
| > 100 | CCOC(=O)c1ccc(C=NO)[n+]([O-])c1 [Compound 88] | – | – |
| > 100 | CC(Oc1ccc(C=C2NC(=S)NC2=O)cc1)C(=O)O (stereo not drawn) [Compound 91] | most effective | – |

Second part, the molecule before the results:

| Structure (SMILES) | IC50 [1] [µM] | effect on ERK-mediated Rsk-1 phosphorylation (in words) [3] | further results |
| --- | --- | --- | --- |
| CN(C)CCNC(=O)c1ccc(-c2ccccc2)cc1 [Compound 68] | – | appeared to enhance; also recorded: enhanced | effect on colony formation / cell proliferation (in words) [2]: little effect |
| NC(=O)COc1ccc(C=C2C(=O)NC(=S)NC2=O)cc1 [Compound 98] | > 100 | – | – |
| N=C(N)Nc1nc(C2COc3ccccc3O2)cs1 (stereo not drawn) [Compound 36] | – | little effect | effect on colony formation / cell proliferation (in words) [2]: subtle inhibition; also recorded: little effect; activity in ERK substrate phosphorylation assays (in words) [6]: little effect |
| COc1ccc(CN2CCNCC2)cc1 [Compound 67] | – | significantly reduced | effect on colony formation / cell proliferation (in words) [2]: little effect; ERK2 fluorescence quenching / binding (in words) [5]: did not show quenching |
| NC(=N[N+](=O)[O-])N/N=C/c1ccc(-c2cccc([N+](=O)[O-])c2)o1 [Compound 89] | – | most effective | effect on ERK-mediated Elk-1 phosphorylation (in words) [4]: most effective |
| O=C(CCN1CCN(C/C=C/c2ccccc2)CC1)Nc1ccc(Cl)cc1 [Compound 81] | – | – | inhibition of cell proliferation in HT1080 (in words) [7]: inhibition of cell proliferation; effect on colony formation / cell proliferation (in words) [2]: completely inhibited; IC50 [8]: ~15 µM; inhibition of cell proliferation in SUM-159 (in words) [9]: inhibition of cell proliferation; ERK2 fluorescence quenching / binding (in words) [5]: quenching only occurs to a small extent at the higher concentrations |
